Results: patent US8247211B2, “Glycopeptide antibiotics” (American Cyanamid Company, priority 2001, dated 2012)
≈ marks a conversion by molar mass, not a printed value. Numbered stars: 1 amine (or outer) side, 2 acyl side, 3 side chain; on linkers, the order of the positions; unused ones are H or OH. Square brackets hold non-standard residues; d marks the D form. Peptide text beside a SMILES is read from it. ξ: configuration not given here. X1 = N=C1NCC(C(O)C(N[*:1])C(=O)[*:2])N1C1OC(CO)C(O)C(O)C1O; ξEnduracididine(βξ-OH,4'ξ) = N=C1NCC(C(O)C(N)C(=O)O)N1; ξPhe(βξ-Me) = CC(c1ccccc1)C(N)C(=O)O

Assays:
[1] = Anatomic pathology (heart and kidney histopathology) in mice; assay type: in vivo, CD-1 mice; conditions: 20 mg/kg intravenously daily for 9 days, microscopic histopathology on day 10
Experimental: 20-day-old CD-1 mice were divided into a vehicle control group (5 mice) and a treatment group (5 mice). Samples of glycopeptide antibiotics were administered at 20 mg/kg intravenously daily for 9 days.
Samples of tissues from necropsied mice were formalin-fixed, paraffin-embedded, sectioned, stained with hematoxylin and eosin, and examined microscopically. Histopathologic findings were recorded. These findings were subjectively graded on a scale corresponding to slight, mild, moderate, marked and severe as compared to untreated controls.

[2] = test system: Staphylococcus aureus-SMITH (GC 4543); experiment: Acute lethal infection in mice (ED50); assay type: in vivo; conditions: female CD-1 mice, intraperitoneal challenge, intravenous dose 30 min. after infection, 7 day survival ratios
Experimental: The therapeutic effects of glycopeptide antibiotics of Formula I are determined against acute lethal infections with S. aureus (strain Smith), a penicillin resistant strain of S. pneumoniae (strain GC 1894), and a vancomycin resistant strain of E. fecalis (strain GC 6189 and GC 2246). Female mice, CD-1 (Charles River Laboratories), 20 +1-2 gm, are challenged by intraperitoneal injection of sufficient bacteria (suspended in Trypticase Soy Broth or hog gastric mucin) to kill non-treated controls within 24-48 hr. Antibacterial agents, contained in 0.2 mL of saline or 5% dextrose solution, are administered intravenously 30 min. after infection. Five mice are treated at each dose level. The 7 day survival ratios from 3 separate tests are pooled for calculation of median effective dose (ED50).

[3] = test system: Streptococcus sp.; experiment: In vitro antibacterial evaluation: minimum inhibitory concentration (MIC), broth dilution method; assay type: cell-based
Procedure, shortened: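 MIC read as lowest drug level preventing visible growth. Organisms at 5×10^5 CFU/mL were exposed to a 64-0.06 μg/mL dilution series in Muller-Hinton II […] following NCCLS broth dilution standard M7-A2.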

[4] = test system: Escherichia coli; experiment: as above; assay type: cell-based; conditions: strain GC 4560
Procedure, shortened: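 Following NCCLS approved standard M7-A2, compounds are serially diluted from 64 to 0.06 μg/mL in Muller-Hinton II […] and inoculated at 5×10^5 CFU/mL; the MIC is the minimum concentration at which growth is inhibited.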

Compound | Anatomical Pathology (Day 10), Heart [1] | Anatomical Pathology (Day 10), Kidney [1] | median effective dose (ED50), Staphylococcus aureus-SMITH (GC 4543) [2] | MIC Streptococcus pneumoniae (GC 1894) ([3]; Streptococcus pneumoniae (GC 1894), broth dilution, 18 hours at 35° C.) [µg/mL] | MIC Streptococcus pneumoniae (GC 1894) ([3]; strain GC 1894) [µg/mL] | MIC Escherichia coli (GC 4560) [4] [µg/mL]
N=C1NCC(C(O)C2NC(=O)[C@H](C(O)C3CNC(=N)N3)NC(=O)C(Cc3ccc(O)cc3)NC(=O)[C@H](Cc3ccccc3)NC(=O)CNC(=O)[C@H](CO)NC2=O)N1 (stereo in doubt) [Example 280a, Cyclo[glycylphenylalanyltyrosyl-3-(2-iminoimidazolidin-4-yl)seryl-3-(2-iminoimidazolidin-4-yl)serylseryl]] | 0 | ++ |  |  |  | 
CC(c1ccccc1)C1NC(=O)CNC(=O)C(CO)NC(=O)C(C(O)C2CNC(=N)N2C2OC(CO)C(O)C(O)C2O)NC(=O)C(C(O)C2CNC(=N)N2)NC(=O)C(Cc2ccc(O)cc2)NC1=O (stereo not drawn) [Example 55, Cyclo[glycyl-β-methylphenylalanyltyrosyl-3-(2-iminoimidazolidin-4-yl)seryl-3-(3-hexopyranosyl-2-iminoimidazolidin-4-yl)serylseryl]] (cyclo(G[ξPhe(βξ-Me)]Y[ξEnduracididine(βξ-OH,4'ξ)][X1]S); configuration not given here) |  |  | >8 |  |  | 
CC(c1ccccc1)C1NC(=O)CNC(=O)C(CO)NC(=O)C(CC2CN(Cc3ccccc3)C(=NCc3ccccc3)N2C2OC(CO)C(O)C(O)C2O)NC(=O)C(CC2CN(Cc3ccccc3)C(=NCc3ccccc3)N2Cc2ccccc2)NC(=O)C(Cc2ccc(OC3OC(CO)C(OC4OC(CO)C(O)C(O)C4O)C(O)C3O)cc2)NC1=O (stereo not drawn) [Example 73, Cyclo[3-[1,3-benzyl-2-(benzylimino)imidazolidin-4-yl]alanyl-3-[1-benzyl-2-(benzylimino)-3-hexopyranosylimidazolidin-4-yl]alanylserylglycyl-β-methylphenylalanyl-O-(4-O-hexopyranosylhexopyranosyl)tyrosyl]] |  |  | >8 | 64 (≈ 37.3 µM) | 64 (≈ 37.3 µM) | 16 (≈ 9.34 µM)
